According to patent US20030207819A1, “Compositions and methods for treating inflammatory connective tissue diseases” (priority 2002, published 2003):
Entries after “also recorded” stand apart in the source; their conditions may differ.

Columns and labels:
Type in all cases: in vivo, human
[1] = test system: patient with chondrocalcinosis leading to pseudorheumatoid pseudogout syndrome; assay: Example 3: clinical observation of patient on clarithromycin; settings: person; clarithromycin 500 mg b.i.d. begun two weeks prior for pneumonia
Method: A patient has severe ditTuse generalized chondrocalcinosis leading to pseudorheumatoid pseudogout syndrome. Given the intensity of their chronic synovitis and the lack of response to steroids as well as NSAIDs, they were put on methotrexate, 10 mg/week and infliximab ([…]®, Centocor, Inc.), after which they did satisfactorily. The patient had bilateral total knee replacements and, subsequently was taken off the infliximab when they developed a knee infection postoperatively. The patient continued to have diffuse aches and pains and joint swelling. When seen in the office on Mar. 12, 2002, they spontaneously asked whether the medicine they were taking for their pneumonia could have an effect on their arthritis. Apparently they had begun clarithromycin 500 mg b.i.d. for their pneumonia two weeks prior and said they had “never felt as well” with respect to their joint symptoms as they had during the subsequent several days. They continued to feel much improved and asked if they could stay on the antibiotic.

[2] = test system: patient with low-grade connective tissue symptoms; assay: Example 5: clarithromycin study, VAS and joint assessment
Excerpt: In 1991, it was elected to begin the patient on hydroxychloroquine ([…]®, Sanofi-Synthelabo, Inc.) given their low-grade connective tissue symptoms not responding to non-steroidal anti-inflammatory therapy. […] A trial of hydroxychloroquine was again initiated to see how they would tolerate it. […] Hydroxychloroquine was discontinued when they wanted to attempt getting pregnant again. Therapy most recently consisted of non-steroidal inflammatory agents and physical therapy.
On Feb. 27, 2003, the patient agreed to participate in the clarithromycin study. […] The patient was begun on clarithromycin (BIAXIN®, Abbott Laboratories) 500 mg twice per day.

[3] = test system: patient with undifferentiated connective tissue disease; assay: Example 6: clarithromycin trial, VAS and joint assessment; settings: for Patient VAS (Pain): baseline 89; for Practitioner VAS (Global): baseline 60; for Patient VAS (Global): baseline 63
Excerpt: A patient, was first seen in September 1999. […] They have used a number of anti-inflammatory agents frequently for therapy.
On the basis of the findings, including recurrent episodes of arthritis, Raynaud's, and thickening of the hands, connective tissue disease diagnoses such as Mixed Connective Tissue Disease or Progressive Systemic Sclerosis were considered.
Based on these findings, a diagnosis of Undifferentiated Connective Tissue Disease was made. Therapy was initiated with hydroxychloroquine ([…]®, Sanofi-Synthelabo, Inc.) and a non-steroidal anti-inflammatory agent. They utilized steroid dose packs periodically for symptomatic relief of their peripheral symptoms as well as their neck symptoms.
On examination, they had symptoms and findings much as before and a diagnosis of Undifferentiated Connective Tissue Disease was made. The patient agreed to undergo a trial with clarithromycin.
Following screening and baseline evaluations, the patient was begun on clarithromycin (BIAXIN®, Abbott Laboratories).
25, 2003 (“Visit 3”), for their first recheck visit.
When seen for their one month evaluation, the patient had been off steroid medication for approximately ten days.
Further assessment of their status was made on Apr. 13, 2003 at which time they were now off steroids for almost a one-month period.
Patient was again seen Apr. 21, 2003 (“Visit Four”), for their formal two-month follow-up on clarithromycin.

[4] = test system: patient with chondrocalcinosis leading to pseudorheumatoid pseudogout syndrome; assay: Example 4: clarithromycin re-challenge of Example 3 patient, symptoms and laboratory assessments
Method: Subsequent to the observations made in Example 3, the patient was re-challenged with clarithromycin, and re-evaluated as to symptomatic efficiency. In parallel with clinical observations, laboratory assessments including erythrocyte sedimentation rate, C-reactive 1 5 protein, and serum interleukins 1 and 6 were measured. The laboratory results are illustrated in Table 2.
On Jun. 15, 2002 the patient from Example 3 underwent a right pneumonectomy for treatment of recurrent lung cancer. During that hospitalization, clarithromycin was discontinued.
The patient underwent formal re-challenge with clarithromycin on Aug. 19, 2002 (Table 2). At that time their medications included ibuprofen at 400 mg/day, acetaminophen at 500 mg/as needed, prednisone at 5 mg/daily, CELEXA™ (Forest Pharmaceuticals, Inc.) at […], REMURON® (Organon Inc.) at 7.5 mg/h.s., DURICEF® (Bristol) at 500 mg b.i.d., TIMOPTIC® eye drops (Merck & Co.), and multi-vitamins. […] Clarithromycin at 500 mg b.i.d. was restarted on Aug. 20, 2002. When seen on Aug. […] 19, 2002. […] 28, 2002. On Sep. […] Ibuprofen was decreased to […] on Sep. 5, 2002. On Sep. […] On Sep.

[5] = Visit Three, clarithromycin for one month
[6] = Visit Three, clarithromycin for one month, baseline 3
[7] = Visit Four, Apr. 21, 2003, clarithromycin for two months
[8] = Visit Four, clarithromycin for two months
[9] = Aug. 27, 2002, on clarithromycin
[10] = Oct. 8, 2002, off clarithromycin
[11] = Sep. 4, 2002, on clarithromycin
[12] = Sep. 9, 2002, on clarithromycin
[13] = Sep. 23, 2002, off clarithromycin

In the case of `CC[C@H]1OC(=O)[C@H](C)[C@@H](O[C@H]2C[C@@](C)(OC)[C@@H](O)[C@H](C)O2)[C@H](C)[C@@H](O[C@@H]2O[C@H](C)C[C@H](N(C)C)[C@H]2O)[C@](C)(OC)C[C@@H](C)C(=O)[C@H](C)[C@@H](O)[C@]1(C)O` [clarithromycin, 6-O-methylerythromycin], the joint symptoms [1] was “much improved”, the “Patient VAS (Pain)” value ([2]; Visit Three, Apr. 2, 2003, clarithromycin 500 mg twice per day for one month, VAS 0 to 100 mm, baseline 67) was 26 mm and the “joint pain, patient statement” value ([2]; Visit Three, clarithromycin 500 mg twice per day) was “became better pretty much right away”. The “joint tenderness and swelling on physical examination” value [2, 5] was “decreased joint tenderness and swelling”, the “Tender/Painful Joints” value [2, 6] was 0 and the “Swollen Joints” value ([2]; Visit Three, clarithromycin for one month, baseline 6) was 1. For the same compound, the “Patient VAS (Global)” value ([2]; Visit Three, clarithromycin for one month, baseline 30) was 12 mm, the “Practitioner VAS (Global)” value ([2]; Visit Three, clarithromycin for one month, baseline 54) was 25 mm and the side reaction ([2]; clarithromycin 500 mg twice per day, one month) was “metallic taste”. The side reaction ([3]; Apr. 13, 2003, on clarithromycin) was “bad taste”, the “pain VAS, patient rating” value ([3]; Apr. 13, 2003, on clarithromycin, off steroids almost one month) was 25 mm and the “patient statement of improvement” value [3, 7] was 80% better. For the same compound, the side reaction [3, 7] was “mild bad taste”, the “Patient VAS (Pain)” value [3, 7] was 11 mm and the “Practitioner VAS (Global)” value [3, 8] was 4 mm. The “Patient VAS (Global)” value [3, 8] was 14 mm, the “Patient VAS (Pain)” value ([3]; Visit Three, Mar. 25, 2003, clarithromycin for one month, off steroid about ten days) was 16 mm and the “Tender/Painful Joints” value [3, 6] was 0. For the same compound, the “Practitioner VAS (Global)” value [3, 5] was 31 mm, the “Patient VAS (Global)” value [3, 5] was 51 mm and the CPR [4, 9] was 0.74 mg/dL. For the same compound, the ESR [4, 9] was 18 mm/hr, the IL-6 [4, 9] was 6.8 pg/mL and the Symptoms ([4]; Aug. 27, 2002, on clarithromycin 500 mg BID since Aug. 20, 2002, compared to baseline Aug. 19, 2002) was “had not observed improvement; also recorded: No change”. It also gave a CPR [4, 10] of 0.77 mg/dL, an ESR [4, 10] of 10 mm/hr and an IL-6 [4, 10] of 1.8 pg/mL. For the same compound, the Symptoms ([4]; Oct. 8, 2002, off clarithromycin, prednisone 5 mg QD) was “continued active”, the CPR [4, 11] was 0.78 mg/dL and the ESR [4, 11] was 10 mm/hr. For the same compound, the IL-6 [4, 11] was 2.5 pg/mL, the Symptoms ([4]; Sep. 4, 2002, on clarithromycin, ibuprofen increased to 800 mg/day on Aug. 28, 2002) was 40% better and the CPR [4, 12] was 1.06 mg/dL. For the same compound, the ESR [4, 12] was 11 mm/hr, the IL-6 [4, 12] was 4.5 pg/mL and the Symptoms ([4]; Sep. 9, 2002, on clarithromycin, discontinued at this visit, ibuprofen 600 mg/day) was “No change”. For the same compound, the Symptoms ([4]; Sep. 16, 2002, off clarithromycin, ibuprofen 400 mg/day) was “Worse”, the IL-6 ([4]; Sep. 16, 2002, one week following clarithromycin discontinuation, baseline 2.2) was 33.1 pg/mL and the ESR [4, 13] was 37 mm/hr. For the same compound, the IL-6 [4, 13] was 6.4 pg/mL, the Symptoms [4, 13] was “continued worsening; also recorded: Worse” and the CPR ([4]; Sep. 23, 2002, off clarithromycin, baseline 0.85) was 3.51 mg/dL. The joints ([4]; clarithromycin begun again as antimicrobial therapy after pneumonectomy) was “once again improved”, the arthritis symptoms ([4]; five to six days following discontinuation of clarithromycin, hospitalization June 2002) was “significantly worse” and the ESR ([4]; off clarithromycin, increase from 11 mm at baseline, date not given in the text) was 37 mm. The “change in IL-1” value ([4]; over the re-challenge Aug. 19 to Oct. 8, 2002) was “No significant change”.
